Assays:
[1] = system: T47D; assay: Growth inhibition, SRB assay, T47D; assay type: cell-based, human; settings: Homo sapiens, 48 h
Excerpt: (§1) Table 2 refers to the growth inhibitory effect of COMP, olaparib and cisplatin (CDDP) in a panel of human immortalized breast (T47D, MCF-7, MDA-MB-231, MDA-MB-468, SK-BR-3 and HCC1937), ovarian and endocervical (OCVAR, SKOV-3, […],IGROV-1 and HeLa), pancreatic (PANC-1 and MIAPACA), neuroblastoma (SHSY-5Y), lung (NCI-H460), prostate (VCaP) melanoma (A375 and SK-MEL-5) and glioblastoma (SF-208) cancer cells, immortalized normal MCF10a and HFF1 human cells, and patient-derived ovarian (PD-OVCA #1, #9, #41, #49 and #62) cancer cells. […] Data are mean±SEM (n=5).
(§2) In an embodiment, IC50 values were determined by Sulforhodamine B (SRB) or MTS [3-(4,5-dimethylthiazol-2-yl)-5-(3-carboxymethoxyphenyl)-2-(4-sulfophenyl)-2H-tetrazolium] assay in immortalized and PD-OVCA cells, respectively. Cancer cells were plated in 96-well plates and incubated for 24 hours. Cells were then exposed to serial dilutions of compounds for 48 hours. The solvent DMSO corresponding to the maximum concentration used in these assays (0.025%) was included as control. Results are the mean±S.E.M. of 3-5 independent experiments.

[2] = system: MCF-7; assay: Growth inhibition, SRB assay, MCF-7; assay type: cell-based, human; settings: Homo sapiens, MCF7, 48 h
Excerpt: as §1, §2

[3] = system: SK-BR-3; assay: Growth inhibition, SRB assay, SK-BR-3; assay type: cell-based, human; settings: Homo sapiens, SK-BR-3, 48 h
Excerpt: as §1, §2

[4] = system: IGROV-1 (mutBRCA1 280delA; mutBRCA2 3320del1); assay: Growth inhibition, SRB assay, IGROV-1; assay type: cell-based, human; settings: Homo sapiens, IGROV-1, 48 h
Excerpt: as §1, §2

[5] = system: PD-OVCA#9 (mutBRCA1: c. 4389C > G; mutBRCA2: c6252delT); assay: Growth inhibition, MTS assay, PD-OVCA#9; assay type: cell-based, human; settings: Homo sapiens, PD-OVCA#9, pathogenic mutant BRCA1/2, 48 hours
Excerpt: as §1, §2

[6] = system: pancreatic cancer cells (PANC-1 and MIAPACA); assay: Growth inhibition, pancreatic cancer cells; assay type: cell-based; settings: Homo sapiens, Pancreatic cancer cell, 48 hours
Procedure: (§3) In an embodiment, the activity of COMP compound was tested in an array of human normal and cancer cell lines (Table 2, FIG. 2).
as §1, §2

[7] = system: patient-derived ovarian cancer cells; assay: Growth inhibition, patient-derived ovarian cancer cells; assay type: cell-based; settings: Homo sapiens; range over PD-OVCA cells; MTS, 48 hours
Procedure: as §3, §1, §2

[8] = system: MDA-MB-231, HCC1937 and IGROV-1 cells; assay: DNA damage by comet assay; assay type: cell-based, human; settings: 6 μM and 12 μM, 48 hours
Procedure: FIG. 8 illustrates the effect of 6 and 12 μM COMP on triple-negative breast cancer and ovarian cancer cells' DNA damage after 48 hours of treatment, measured by comet assay. FIG. 8A are representative images (scale bar=20 μm; 200× magnification).
(§4) In an embodiment, COMP decreased homologous recombination DNA repair and disrupted the BRCA1-BARD1 interaction.

[9] = system: MCF7 DR-GFP cells; assay: Chromosomal DR-GFP homologous recombination assay; assay type: cell-based, human; settings: 2 μM and 6 μM, 48 hours
Procedure: FIG. 9 illustrates the effect of 2 and 6 μM COMP after 48 hours of treatment on homologous recombination activity in MCF7 DR-GFP cells using the chromosomal DR-GFP assay. After 72 hours of double strand breaks induction, MCF7 DR-GFP cells were analysed by flow cytometry to quantify the percentage of GFP-positive cells.
as §4

[10] = system: MDA-MB-231, HCC1937 and IGROV-1 cells; assay: Combination with CDDP or olaparib, SRB assay; assay type: cell-based, human; settings: single concentration of COMP with concentration range of CDDP or olaparib, 48 hours; CI<1, synergy
Procedure: FIG. 13 illustrates that COMP sensitizes triple-negative breast cancer and ovarian cancer cells to the effect of cisplatin (CDDP) and olaparib. Cells were treated with a concentration range of CDDP and olaparib alone and in combination with a single concentration of COMP (with no significant effect on cells growth) in MDA-MB-231 (FIG. 13A), HCC1937 (FIG. 13B) and IGROV-1 (FIG. 13C). Cell proliferation was measured by SRB assay after 48 hours of treatment; growth obtained with control (DMSO) was set as 100%. […] Combination index (CI) and dose-reduction index (DRI) for each combined treatment were calculated using CompuSyn software (CI<1, synergy; 1<CI<1.1, addictive effect; CI>1.1, antagonism); data were calculated using a mean value effect of six independent experiments.
In an embodiment, COMP sensitizes triple-negative breast cancer and ovarian cancer cells to the effect of CDDP and olaparib as shown by the enhancement of the growth inhibitory effect and promising synergistic effects between COMP and CDDP or olaparib (CI<1), with a noticeable reduction in the effective dose of chemotherapeutic agents (FIGS. 13A-C).

[11] = Body and organ weight of treated xenograft mice; assay type: in vivo; settings: 2 mg/kg intraperitoneal, seven administrations; compared to vehicle
Procedure: FIG. 14 illustrates the in vivo antitumor activity of COMP. C57BL/6-Rag2−/−IL2rg−/− xenograft mice, carrying IGROV-1 cells, were treated with vehicle (control), or 2 mg/kg of COMP or 50 mg/kg of olaparib by intraperitoneal injection three times per week (seven administrations in total). The treatment was initiated when palpable tumors were established (^˜100 mm3). […] In FIGS. 14A-C, data are mean±SEM, n=13 animals.

IC50 ([1]; BRCA1 wild-type, 48 hours (second Table 2)): 11.5 µM
IC50 ([1]; wild-type BRCA1/2, 48 hours): 11.5 ± 3 µM
IC50 ([2]; MCF-7, BRCA1 wild-type, 48 hours (second Table 2)): 12 µM
IC50 ([2]; MCF-7, wild-type BRCA1/2, 48 hours): 12 ± 1.5 µM
IC50 ([3]; SK-BR-3, BRCA1 loss of heterozigoty, 48 hours): 5.7 ± 1.4 µM
IC50 ([3]; SK-BR-3, BRCA1 loss of heterozygosity, 48 hours (second Table 2)): 5.7 µM
IC50 [6]: 4.5 µM
IC50 [7]: 2.68 to 15.1 µM
organs weight (spleen, liver, heart and kidneys) [11]: no significant variation
SMILES: CC[C@H]1CN(C)C2Cc3c([nH]c4ccccc34)/C(=N/Nc3ccc(Br)cn3)C[C@@H]1[C@@H]2C(=O)OC [COMP, methyl (5R,6S,14S,E)-8-(2-(5-bromopyridin-2-yl) hydrazineylidene)-5-ethyl-3-methyl-2,3,4,5,6,7,8,9-octahydro-1H-2,6-methanoazecino [5,4-b]indole-14-carboxylate]
IC50 ([4]; IGROV-1, mutant BRCA1/2, 48 hours): 4.6 ± 1.5 µM
IC50 ([4]; Igrov-1, BRCA1 mutant, 48 hours (second Table 2)): 4.6 µM
IC50 [5]: 5.1 ± 1 µM
percentage of comet-positive cells (tail DNA, tail moment) [8]: significantly increased
homologous recombination DNA repair capacity (GFP-positive cells) [9]: marked reduction
Combination index (CI) of COMP with CDDP or olaparib [10]: < 1
body weight [11]: no significant variation

Source: patent US20250345317A1, “New pharmaceutical compounds, methods and uses thereof” (BBIT-THERAPEUTICS, LDA., priority 2020, published 2025)
